How the values were obtained:
[1] = molecular target: Epidermal growth factor receptor (Homo sapiens, UniProt P00533); test: Inhibition of the tyrosine kinase activity of the human epidermal growth factor receptor (EGFR)
NIH3T3 = test: Compound was tested for the concentration necessary to inhibit swiss 3T3 Mouse Fibroblast cell growth rate by 50%.; assay type: functional, cell-based

Chain of Epidermal growth factor receptor (P00533 whole entry): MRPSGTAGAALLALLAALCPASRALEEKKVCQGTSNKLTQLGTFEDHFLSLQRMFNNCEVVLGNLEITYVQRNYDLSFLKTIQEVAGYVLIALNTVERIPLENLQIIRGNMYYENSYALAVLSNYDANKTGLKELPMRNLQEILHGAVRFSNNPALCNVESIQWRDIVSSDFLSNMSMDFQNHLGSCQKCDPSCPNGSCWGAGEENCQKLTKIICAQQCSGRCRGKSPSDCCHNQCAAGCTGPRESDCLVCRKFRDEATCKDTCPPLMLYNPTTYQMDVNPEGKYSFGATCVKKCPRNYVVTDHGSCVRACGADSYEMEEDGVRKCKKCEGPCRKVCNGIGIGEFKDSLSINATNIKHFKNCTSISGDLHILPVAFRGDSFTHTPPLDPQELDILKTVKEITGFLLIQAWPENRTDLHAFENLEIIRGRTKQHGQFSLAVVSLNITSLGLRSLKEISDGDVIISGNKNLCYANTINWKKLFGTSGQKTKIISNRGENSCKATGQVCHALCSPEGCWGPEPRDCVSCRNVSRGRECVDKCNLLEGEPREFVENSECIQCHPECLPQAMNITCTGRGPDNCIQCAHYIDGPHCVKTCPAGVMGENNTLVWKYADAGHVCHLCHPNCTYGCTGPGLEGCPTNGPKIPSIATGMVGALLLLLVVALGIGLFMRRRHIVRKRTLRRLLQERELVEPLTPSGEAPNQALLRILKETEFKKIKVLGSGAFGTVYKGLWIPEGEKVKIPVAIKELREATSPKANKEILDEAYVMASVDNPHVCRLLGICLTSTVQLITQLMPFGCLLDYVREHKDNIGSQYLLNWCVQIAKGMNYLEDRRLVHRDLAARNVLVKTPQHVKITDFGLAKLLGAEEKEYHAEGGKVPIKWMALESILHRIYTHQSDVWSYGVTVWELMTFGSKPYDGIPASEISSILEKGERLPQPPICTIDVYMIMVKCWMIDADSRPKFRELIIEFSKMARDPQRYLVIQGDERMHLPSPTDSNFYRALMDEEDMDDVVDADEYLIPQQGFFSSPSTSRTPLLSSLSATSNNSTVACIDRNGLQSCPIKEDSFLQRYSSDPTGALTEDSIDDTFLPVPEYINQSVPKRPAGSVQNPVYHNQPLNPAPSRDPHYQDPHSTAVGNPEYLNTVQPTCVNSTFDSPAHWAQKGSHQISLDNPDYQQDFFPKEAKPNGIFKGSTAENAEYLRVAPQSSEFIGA

SMILES	IC50 [1]	IC50 (NIH3T3)
O=C(CCc1c(SSc2[nH]c3ccccc3c2CCC(=O)NCc2ccc(C(=O)O)cc2)[nH]c2ccccc12)NCc1ccc(C(=O)O)cc1	7.4 µM	
O=C(CCc1c(SSc2[nH]c3ccccc3c2CCC(=O)NCc2ccc(C(=O)O)c(O)c2)[nH]c2ccccc12)NCc1ccc(C(=O)O)c(O)c1	8.5 µM	
CN(C)C(=O)CCc1c(SSc2[nH]c3ccccc3c2CCC(=O)N(C)C)[nH]c2ccccc12	12 µM	
O=C(CCCc1c(SSc2[nH]c3ccccc3c2CCCC(=O)NCc2ccccc2)[nH]c2ccccc12)NCc1ccccc1	100 µM	
N#CCCc1c(SSc2[nH]c3ccccc3c2CCC#N)[nH]c2ccccc12	47 µM	
O=C(CCc1c(SSc2[nH]c3ccccc3c2CCC(=O)Nc2ccccc2)[nH]c2ccccc12)Nc1ccccc1	25 µM	
COC(=O)c1ccc(CNC(=O)CCc2c(SSc3[nH]c4ccccc4c3CCC(=O)NCc3ccc(C(=O)OC)c(O)c3)[nH]c3ccccc23)cc1O	100 µM	
CC(=O)NC(Cc1c(SSc2[nH]c3ccccc3c2CC(NC(C)=O)C(=O)NCc2ccccc2)[nH]c2ccccc12)C(=O)NCc1ccccc1 (configuration not stated)	51 µM	
CNC(=O)CCc1c(SSc2[nH]c3ccccc3c2CCC(=O)NC)[nH]c2ccccc12	9.4 µM	
O=C(NCc1ccccc1)C(O)Cc1c(SSc2[nH]c3ccccc3c2CC(O)C(=O)NCc2ccccc2)[nH]c2ccccc12 (configuration not stated)	14 µM	
O=C(Cc1c(SSc2[nH]c3ccccc3c2CC(=O)NCc2ccccc2)[nH]c2ccccc12)NCc1ccccc1		2.7 µM
O=[N+]([O-])CCc1c(SSc2[nH]c3ccccc3c2CC[N+](=O)[O-])[nH]c2ccccc12	89 µM	
O=C(CCc1c(SSc2[nH]c3ccccc3c2CCC(=O)NCCc2ccccc2)[nH]c2ccccc12)NCCc1ccccc1	24 µM	
O=C(CC1C(=S)Nc2ccccc21)NCc1ccccc1 (configuration not stated)	100 µM	
O=C(CCC1C(=S)Nc2ccccc21)NCc1ccccc1 (configuration not stated)	100 µM	
O=C(O)CCc1c(SSc2[nH]c3ccccc3c2CCC(=O)O)[nH]c2ccccc12		60 µM
N#CCc1c(SSc2[nH]c3ccccc3c2CC#N)[nH]c2ccccc12	32 µM	
O=C(CCc1c(SSc2[nH]c3ccccc3c2CCC(=O)NCc2ccccc2)[nH]c2ccccc12)NCc1ccccc1		5.9 µM
CC(=O)OC(Cc1c(SSc2[nH]c3ccccc3c2CC(OC(C)=O)C(=O)NCc2ccccc2)[nH]c2ccccc12)C(=O)NCc1ccccc1 (configuration not stated)	28 µM	
O=C(NCc1ccccc1)C(Cc1c(SSc2[nH]c3ccccc3c2CC(NC(=O)C(F)(F)F)C(=O)NCc2ccccc2)[nH]c2ccccc12)NC(=O)C(F)(F)F (configuration not stated)	> 100 µM	
NC(Cc1c(SSc2[nH]c3ccccc3c2CC(N)C(=O)NCc2ccccc2)[nH]c2ccccc12)C(=O)NCc1ccccc1 (configuration not stated)	7.6 µM	5.3 µM
